Patent US11446287B2, “Compounds and methods for EP300 or CBP modulation and indications therefor” (Opna Immuno-Oncology SA, priority 2019, dated 2022)

The compounds below were run against T1, Recombinant human CBP containing the bromodomain (CBP-BD (1043-1159)) (Homo sapiens, UniProt Q92793) (assay: CBP Alphascreen binding assay). Settings: read-out: CREBBP (CBP) IC50.
T1 construct: Recombinant human CBP bromodomain (CBP-BD (1043-1159)); made in house; host or cells: E. coli BL21-CodonPlus (DE3), modified pET vector
Outline: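 Buffer: 50 mM HEPES pH 7.5, 50 mM NaCl, 0.01% BSA, 0.01% Triton X-100, 2 mM DTT. The signal was normalised to plate controls and fitted with a four-parameter curve to give IC50.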

T1 sequence (Q92793 1081-1197): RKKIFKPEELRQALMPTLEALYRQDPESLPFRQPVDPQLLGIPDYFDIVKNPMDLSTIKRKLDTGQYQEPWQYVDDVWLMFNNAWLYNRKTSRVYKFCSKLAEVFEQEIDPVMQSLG

Compound	IC50 [µM]
CCOc1ccc(C(=O)O)cc1-n1cc(-c2ccccc2)c2ncc(-c3c(C)noc3C)cc21 [P-0225, 3-(6-(3,5-dimethylisoxazol-4-yl)-3-phenyl-1H-pyrrolo[3,2-b]pyridin-1-yl)-4-ethoxybenzoic acid]	0.0001 to 1
Cc1noc(C)c1-c1cnc2c(c1)c(-c1ccc(C(=O)O)cc1OC(F)(F)F)cn2C1CCOCC1 [P-0226, 4-(5-(3,5-dimethylisoxazol-4-yl)-1-(tetrahydro-2H-pyran-4-yl)-1H-pyrrolo[2,3-b]pyridin-3-yl)-3-(trifluoromethoxy)benzoic acid]	0.0001 to 1
Cc1noc(C)c1-c1cnc2c(c1)c(-c1ccc(C(=O)O)cc1OC(F)(F)F)cn2C1CCC(F)(F)CC1 [P-0227, 4-(1-(4,4-difluorocyclohexyl)-5-(3,5-dimethylisoxazol-4-yl)-1H-pyrrolo[2,3-b]pyridin-3-yl)-3-(trifluoromethoxy)benzoic acid]	0.0001 to 1
Cc1noc(C)c1-c1cnc2c(c1)c(-c1ccc(C(=O)O)cc1OC(F)(F)F)c(C)n2-c1ccccn1 [P-0228, 4-(5-(3,5-dimethylisoxazol-4-yl)-2-methyl-1-(pyridin-2-yl)-1H-pyrrolo[2,3-b]pyridin-3-yl)-3-(trifluoromethoxy)benzoic acid]	0.0001 to 1
Cc1noc(C)c1-c1cnc2c(-c3ccc(F)cc3F)cn(-c3ccc(C(=O)O)cc3OC(F)(F)F)c2c1 [P-0229, 4-(3-(2,4-difluorophenyl)-6-(3,5-dimethylisoxazol-4-yl)-1H-pyrrolo[3,2-b]pyridin-1-yl)-3-(trifluoromethoxy)benzoic acid]	0.0001 to 1
Cc1noc(C)c1-c1cnc2c(c1)c(-c1c(F)cc(C(=O)O)cc1OC(F)(F)F)cn2C(C1CC1)C1CC1 [P-0230, 4-(1-(dicyclopropylmethyl)-5-(3,5-dimethylisoxazol-4-yl)-1H-pyrrolo[2,3-b]pyridin-3-yl)-3-fluoro-5-(trifluoromethoxy)benzoic acid]	0.0001 to 1
Cc1ccccc1-n1cc(-c2ccc(C(=O)O)cc2OC(F)(F)F)c2cc(-c3c(C)noc3C)cnc21 [P-0231, 4-(5-(3,5-dimethylisoxazol-4-yl)-1-(o-tolyl)-1H-pyrrolo[2,3-b]pyridin-3-yl)-3-(trifluoromethoxy)benzoic acid]	0.0001 to 1
Cc1noc(C)c1-c1cnc2c(c1)c(-c1ccc(C(=O)O)cc1OC(F)(F)F)cn2-c1ccc(F)cc1F [P-0232, 4-(1-(2,4-difluorophenyl)-5-(3,5-dimethylisoxazol-4-yl)-1H-pyrrolo[2,3-b]pyridin-3-yl)-3-(trifluoromethoxy)benzoic acid]	0.0001 to 1
Cc1noc(C)c1-c1cnc2c(c1)c(-c1ccc(C(=O)O)cc1OC(F)(F)F)cn2-c1cc(F)ccc1F [P-0233, 4-(1-(2,5-difluorophenyl)-5-(3,5-dimethylisoxazol-4-yl)-1H-pyrrolo[2,3-b]pyridin-3-yl)-3-(trifluoromethoxy)benzoic acid]	0.0001 to 1
Cc1noc(C)c1-c1cnc2c(-c3ccc(C(=O)O)cc3F)c(C(F)(F)F)n([C@@H](C)c3ccccn3)c2c1 [P-0234, (S)-4-(6-(3,5-dimethylisoxazol-4-yl)-1-(1-(pyridin-2-yl)ethyl)-2-(trifluoromethyl)-1H-pyrrolo[3,2-b]pyridin-3-yl)-3-fluorobenzoic acid]	0.0001 to 1
Cc1cc(C(=O)O)ccc1-c1c(C(F)(F)F)n([C@@H](C)c2ccccn2)c2cc(-c3c(C)noc3C)cnc12 [P-0235, (S)-4-(6-(3,5-dimethylisoxazol-4-yl)-1-(1-(pyridin-2-yl)ethyl)-2-(trifluoromethyl)-1H-pyrrolo[3,2-b]pyridin-3-yl)-3-methylbenzoic acid]	0.0001 to 1
COc1cc(C(=O)O)ccc1-c1c(C(F)(F)F)n([C@@H](C)c2ccccn2)c2cc(-c3c(C)noc3C)cnc12 [P-0236, (S)-4-(6-(3,5-dimethylisoxazol-4-yl)-1-(1-(pyridin-2-yl)ethyl)-2-(trifluoromethyl)-1H-pyrrolo[3,2-b]pyridin-3-yl)-3-methoxybenzoic acid]	0.0001 to 1
Cc1noc(C)c1-c1cnc2c(-c3cn(C)nc3C3CC3)c(C(F)(F)F)n([C@@H](C)c3ccccn3)c2c1 [P-0237, (S)-4-(3-(3-cyclopropyl-1-methyl-1H-pyrazol-4-yl)-1-(1-(pyridin-2-yl)ethyl)-2-(trifluoromethyl)-1H-pyrrolo[3,2-b]pyridin-6-yl)-3,5-dimethylisoxazole]	0.0001 to 1
Cc1noc(C)c1-c1cnc2c(-c3cc(C(=O)O)ccc3F)c(C(F)(F)F)n([C@@H](C)c3ccccn3)c2c1 [P-0238, (S)-3-(6-(3,5-dimethylisoxazol-4-yl)-1-(1-(pyridin-2-yl)ethyl)-2-(trifluoromethyl)-1H-pyrrolo[3,2-b]pyridin-3-yl)-4-fluorobenzoic acid]	0.0001 to 1
COc1ccc(C(=O)O)cc1-c1c(C(F)(F)F)n([C@@H](C)c2ccccn2)c2cc(-c3c(C)noc3C)cnc12 [P-0239, (S)-3-(6-(3,5-dimethylisoxazol-4-yl)-1-(1-(pyridin-2-yl)ethyl)-2-(trifluoromethyl)-1H-pyrrolo[3,2-b]pyridin-3-yl)-4-methoxybenzoic acid]	1 to 8
Cc1noc(C)c1-c1cnc2c(-c3cc(F)cc(C(=O)O)c3)c(C(F)(F)F)n([C@@H](C)c3ccccn3)c2c1 [P-0240, (S)-3-(6-(3,5-dimethylisoxazol-4-yl)-1-(1-(pyridin-2-yl)ethyl)-2-(trifluoromethyl)-1H-pyrrolo[3,2-b]pyridin-3-yl)-5-fluorobenzoic acid]	0.0001 to 1
Cc1noc(C)c1-c1cnc2c(-c3cc(Cl)cc(C(=O)O)c3)c(C(F)(F)F)n([C@@H](C)c3ccccn3)c2c1 [P-0241, (S)-3-chloro-5-(6-(3,5-dimethylisoxazol-4-yl)-1-(1-(pyridin-2-yl)ethyl)-2-(trifluoromethyl)-1H-pyrrolo[3,2-b]pyridin-3-yl)benzoic acid]	0.0001 to 1
Cc1noc(C)c1-c1cnc2c(-c3ccc(C(=O)O)c(F)c3)c(C(F)(F)F)n([C@@H](C)c3ccccn3)c2c1 [P-0242, (S)-4-(6-(3,5-dimethylisoxazol-4-yl)-1-(1-(pyridin-2-yl)ethyl)-2-(trifluoromethyl)-1H-pyrrolo[3,2-b]pyridin-3-yl)-2-fluorobenzoic acid]	1 to 8
